Reference: patent US20050158425A1, “Thin mouthfeel calcium-fortified beverage containing calcium lactate gluconate citrate” (PURAC BIOCHEM BV, priority 2003, published 2005)

Assays:
[1] = Dissolution rate of calcium-fortified beverages by conductivity; format: physicochemical; conditions: 20° C.
Method: The dissolution rates of calcium lactate gluconate (ratio Ca lactate:Ca gluconate 80/20) and calcium lactate gluconate citrate (in a ratio calcium lactate:calcium gluconate:calcium citrate of 12.7:47.8:39.5) beverages were determined by measuring the conductivity and calculating the dissolution rate from the conductivity indices. Said beverages contained 10, and 30% R.D.I respectively in water at 20° C., 30% in apple juice at 20° C. and 10% in cranberry juice at 20° C.

[2] = Hygroscopicity of powdered samples; format: physicochemical; conditions: for water pick up (hygroscopicity): 20° C., 60% relative humidity, 21 days, powdered sample; for state of powdered sample (hygroscopicity): 35° C., 70% relative humidity
Method: The hygroscopicities of powdered samples of calcium lactate gluconate citrate (in a ratio calcium lactate:calcium gluconate:calcium citrate of 12.7:47.8:39.5) and calcium lactate gluconate (lactate/gluconate ratio 20/80) were measured at 20° C. at 60% relative humidity and at 35° C. at 70% relative humidity. At 20° C. at 60% relative humidity both samples hardly pick up any water (about 1%) for 21 days.

| SMILES | Dissolution time in seconds (at conductivity 99.5) ([1]; Apple juice (30% RDI)) | Dissolution time in seconds (at conductivity 99.5) ([1]; Cranberry juice (10% RDI)) | Dissolution time in seconds (at conductivity 99.5) ([1]; Water (10% RDI)) | water pick up (hygroscopicity) [2] | state of powdered sample (hygroscopicity) [2] | hygroscopicity ([2]; at increased temperatures) |
| --- | --- | --- | --- | --- | --- | --- |
| CC(O)C(=O)[O-].O=C([O-])[C@H](O)[C@@H](O)[C@H](O)[C@H](O)CO.[Ca+2] [Calcium lactate gluconate, calcium lactate gluconate] | 25 s | 34 s | 35 s | – | – | – |
| CC(O)C(=O)O.O=C(O)[C@H](O)[C@@H](O)[C@H](O)[C@H](O)CO.O=C([O-])CC(O)(CC(=O)[O-])C(=O)O.[Ca+2] [calcium lactate gluconate citrate] | 30 s | 27 s | 23 s | about 1% | still had the powdered structure and appeared unchanged after 20 days | very low hygroscopicity |
| CC(O)C(=O)[O-].O=C([O-])[C@H](O)[C@@H](O)[C@H](O)[C@H](O)CO.[Ca+2] [calcium lactate gluconate (20/80), calcium lactate gluconate] | – | – | – | about 1% | completely liquefied within 2 days | – |
